# Details: for log10 biotransformation half-life (days) / log10 BCF: fish
Structure (SMILES),melting point [°C],boiling point [°C],further results
Clc1cc(Cl)c(Cl)c(-c2c(Cl)ccc(Cl)c2Cl)c1,–,–,log10 Henry constant (atm·m³/mol): -4.25; log10 biotransformation half-life (days): 2.32
O=[N+]([O-])c1ccc(N=Nc2ccc(N(CCO)CCO)cc2Cl)cc1,190,–,–
CC/C(=C(/CC)c1ccc(O)cc1)c1ccc(O)cc1,–,–,log10 Koc (L/kg): 4.14
CN1CCC(N(Cc2cccs2)c2ccccc2)CC1,96,–,–
CCc1oc2ccccc2c1C(=O)c1ccc(O)cc1,124,–,–
C[C@H](O)CC[C@H](C)O,43,218,–
CCOC(=O)C(F)F,–,100,–
Cc1cc2cc3cc(C)c(C)cc3cc2cc1C,–,–,log10 biotransformation half-life (days): 0.59
CC1(C)CC(C)(c2ccccc2)c2ccccc21 (stereo not given),52.5,308,–
CCC#CCCCCC(=O)O,14,–,–
C=C(C)CCO,–,132,log10 vapour pressure (mmHg): 0.551
Cc1cc([N+](=O)[O-])ccc1O,96,–,–
CC(C)CNCCO,–,199,–
CC(=O)Nc1ccc(C)cc1,152,307,–
CCN(CC)c1ccc(C=NN(c2ccccc2)c2ccccc2)cc1,94.5,–,–
C=COCCCC,-92,94,log10 vapour pressure (mmHg): 1.69
COC(=O)/C=C\C(=O)OC,–,198,log10 vapour pressure (mmHg): -0.523
N#CC(O)c1ccccc1 (stereo not given),-10,–,–
COC(=O)c1ccc(C)cc1,33.2,220,–
CCCCCOC(C)=O,-70.8,149,log10 Henry constant (atm·m³/mol): -3.41; log10 Koa: 4.12; log10 vapour pressure (mmHg): 0.544
C=C1C[C@]23C[C@@]1(O)CC[C@H]2[C@@]12C=C[C@H](O)[C@@](C)(C(=O)O1)[C@H]2[C@@H]3C(=O)O,234,–,–
CCOC(=O)C(C(=O)OCC)=C(C(=O)OCC)C(=O)OCC,58,–,–
OCCNCCO,28,269,log10 Koc (L/kg): 0.6; log10 vapour pressure (mmHg): -3.55; ready biodegradability: readily biodegradable

Structure (SMILES),melting point [°C],boiling point [°C],further results
c1ccc(C2OCCCO2)cc1,41,253,–
CCCCCCCCCCCCCCCCCC(=O)OCCCCCCCCCCCCCCCC,57,–,–
C[C@H]1CCC[C@H](C)C1=O,–,175,–
C=C(C)[C@@H]1CC[C@]2(CO)CC[C@]3(C)[C@H](CC[C@@H]4[C@@]5(C)CC[C@H](O)C(C)(C)[C@@H]5CC[C@]43C)[C@@H]12,250,–,–
O=C(Cl)c1ccc(C(=O)Cl)cc1,83.5,258,–
C=CC(F)(F)F,–,-17,log10 vapour pressure (mmHg): 3.64
C=C(C)Br,-126,48.4,–
OCCC1CCCCC1,-20,208,log10 vapour pressure (mmHg): -0.78
OCC(O)CCl (stereo not given),–,–,log10 vapour pressure (mmHg): -0.699; ready biodegradability: readily biodegradable
CCC(C)C(=O)C(C)CC (stereo not given),–,162,–
O=C(c1ccccc1)c1ccccc1O,40,–,–
NC(=O)CN1CCCC1=O,152,–,–
Cc1occc(=O)c1O,162,–,–
Cc1ccc(S(=O)(=O)O)cc1,104,–,ready biodegradability: readily biodegradable
CCO[Si](c1ccccc1)(c1ccccc1)c1ccccc1,65,344,–
COC(=O)c1cc2ccccc2cc1O,75.5,–,–
Oc1ccc2c(c1)[C@@]13CCCC[C@H]1[C@@H](C2)N(CC1CC1)CC3,188,–,–
CC=Cc1ccc(OC)cc1,21.3,234,log10 vapour pressure (mmHg): -1.15
O=[N+]([O-])c1ccc(Oc2ccccc2)c([N+](=O)[O-])c1,71,–,–
c1ccc(-c2ccccc2-c2ccccc2-c2ccccc2)cc1,118,420,–
CCCCOC(=O)c1ccc(O)cc1,68.5,–,–
Cc1ccc(N=c2sccn2C)c(C)c1,44,–,log10 vapour pressure (mmHg): -4.74
COC(=O)[C@H]1[C@H]2C[C@@H]3c4[nH]c5ccccc5c4CCN3C[C@H]2C[C@@H](OC(=O)c2cc(OC)c(OC)c(OC)c2)[C@@H]1OC,230,–,–

Structure (SMILES),melting point [°C],boiling point [°C],further results
CC=CCc1ccccc1,–,176,–
NCCc1c[nH]c2ccccc12,118,–,–
Cc1cc2nc[nH]c2cc1C,206,–,–
CC(CO)Oc1ccccc1 (stereo not given),–,244,–
C=C1CCC1=C,–,64,–
CC(=O)N(C)C(=O)COC(=O)c1ccccc1,102,–,–
CC(=O)Oc1c(I)cc(I)cc1C(=O)Nc1ccc(Cl)cc1,216,–,–
Nc1ccccc1-c1ccccc1N,81,–,log10 vapour pressure (mmHg): -5.57
CC(CNC1CCCCC1)OC(=O)c1ccccc1.Cl (stereo not given),178,–,–
CCCCCCCCOC(=O)CCCCCCC,-18.1,307,–
CCOc1cccc(Cl)c1,–,207,–
CC(C)NCCO,128,173,–
CCCC1CCCCC1C (stereo not given),–,176,–
NS(=O)(=O)c1ccccc1,151,–,ready biodegradability: not readily biodegradable; log10 BCF: 0.68; log10 biotransformation half-life (days): -0.71
CC(=O)Oc1ccccc1C,–,208,–
O=C(O)C(F)(F)C(F)(F)C(F)(F)C(F)(F)C(F)(F)C(F)(F)C(F)(F)C(F)(F)C(F)(F)C(F)(F)C(F)(F)F,108,249,ready biodegradability: not readily biodegradable
Clc1cccs1,-71.9,128,log10 vapour pressure (mmHg): 1.38
O=C1CCCCCO1,-18,215,log10 vapour pressure (mmHg): -0.87; ready biodegradability: readily biodegradable
O=C(O)C(Cc1ccccc1)Cc1ccccc1,90,–,–
Cn1ccc(=O)c2ccccc21,152,–,–
CC(C)CCOCCC(C)C,–,172,log10 vapour pressure (mmHg): 0.146; ready biodegradability: not readily biodegradable; log10 BCF: 2.23; log10 biotransformation half-life (days): -0.45
C=CCOC(=O)CC(C)=O,-85,196,–
C=Cc1ccc(C(=O)O)cc1,144,–,–

Structure (SMILES),melting point [°C],boiling point [°C],further results
CCCCCOC(=O)CCCCC,-47,226,–
Oc1ccc2c(c1)[C@@]13CCCC[C@@]1(O)[C@@H](C2)N(CC1CCC1)CC3,216,–,–
CCOP(=S)(OCC)SCSc1ccc(Cl)cc1,–,–,log10 Koc (L/kg): 4.66; log10 vapour pressure (mmHg): -6.52
OCC(Cl)CCl (stereo not given),–,184,–
Oc1c(Br)cc(Br)c(Br)c1Br,114,–,–
ClCCCBr,-58.9,143,log10 vapour pressure (mmHg): 0.806; ready biodegradability: not readily biodegradable
O=C(O)CCC(=O)Nc1ccccc1,148,–,–
Cc1cccc(N)c1,-31.2,203,log10 Henry constant (atm·m³/mol): -5.78; log10 Koc (L/kg): 1.53; log10 vapour pressure (mmHg): -0.519; ready biodegradability: not readily biodegradable
N#CC1CC1,–,135,–
c1ccc2sc(SNC3CCCCC3)nc2c1,98,–,ready biodegradability: not readily biodegradable
COc1cc2ccc(=O)oc2c(O)c1O,231,–,–
COC(=O)CCCCCC(=O)OC,-21,–,–
CC(=O)N(c1onc(C)c1C)S(=O)(=O)c1ccc(N)cc1,194,–,–
O=[N+]([O-])/N=C1\NCCN1Cc1ccc(Cl)nc1,144,–,–
Nc1cccc(Cl)c1Cl,24,252,–
CC(=O)C(C)C,-92,94.3,log10 Koa: 3.04; log10 vapour pressure (mmHg): 1.72; ready biodegradability: readily biodegradable
CCC(C)CCC=C(C)C (stereo not given),–,163,–
C=CC(=O)OCC(F)(F)C(F)F,–,132,–
CC(C)Oc1cccc(NC(=O)c2ccccc2C(F)(F)F)c1,104,–,log10 vapour pressure (mmHg): -7.31; log10 BCF: 1.29; log10 biotransformation half-life (days): -0.61
Nc1cc(C(Cl)=C(Cl)Cl)c(S(N)(=O)=O)cc1S(N)(=O)=O,203,–,–
CC(C)Br,-89,59.5,log10 vapour pressure (mmHg): 2.34; ready biodegradability: readily biodegradable

# Source: the OPERA property sets (Mansouri et al. 2018)
